Test results reported in patent EP2975030B1, “DIHYDROPYRIDAZINE-3,5-DIONE DERIVATIVE” (Chugai Seiyaku Kabushiki Kaisha, priority 2013, dated 2014).

Tested on: rat small-intestinal brush border membrane vesicles
Assay: Inhibitory effect on 33PO4 uptake into rat small-intestinal brush border membrane vesicles (rapid filtration method)
Assay type: biochemical, Wistar female rat
Settings: 1 µM test compound, 33PO4 uptake into rat small-intestinal BBMVs, 60 seconds
Method in brief: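 33PO4 uptake into rat small-intestinal brush border membrane vesicles measured by rapid filtration. Reactions were stopped with ice-cold buffer (110 mM NaCl, 1 mM KH2PO4, 10 mM HEPES pH 7.5), filtered and washed. Vesicle-associated radioactivity was counted by liquid scintillation.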

SMILES	Rate of uptake inhibition (%) (1 µM)	Rate of uptake inhibition (%) (1 µM)
Cc1ccccc1CN1C(=O)C(C(=O)Nc2ccc(C(F)(F)F)cc2-c2cc(C(F)(F)F)ncn2)=C(O)[C@@]2(C)CCCN12 [Example 185]	83	
C[C@]12CCCN1N(Cc1c(F)cccc1F)C(=O)C(C(=O)Nc1ccc(C(F)(F)F)cc1-c1cc(C(F)(F)F)ncn1)=C2O [Example 212]	98	
CN1N(Cc2ccc(OCCN3CCOCC3)c(F)c2F)C(=O)C(C(=O)Nc2ccc(C(F)(F)F)cc2-c2ncnc(C(F)(F)F)c2Cl)=C(O)C12CCC2 [Example 284]	46	
COc1cccc(-c2cc(C(F)(F)F)ccc2NC(=O)C2=C(O)[C@@]3(C)CCCN3N(Cc3ccc(CCCOCCOCCOCCO)c(F)c3F)C2=O)c1OC [Example 142]	76	
Cc1cc(NC(=O)C2=C(O)[C@@H]3CCC(C)(C)N3N(Cc3cccc(F)c3)C2=O)c(C(F)(F)F)o1 [Example 4, (4aS)-1-[(3-Fluorophenyl)methyl]-4-hydroxy-7,7-dimethyl-N-[5-methyl-2-(trifluoromethyl)furan-3-yl]-2-oxo-5,6-dihydro-4aH-pyrrolo[1,2-b]pyridazine-3-carboxamide]	32	
C[C@@H]1COC[C@H](C)N1CCOc1ccc(CN2C(=O)C(C(=O)Nc3ccc(C(F)(F)F)cc3-c3cc(C(F)(F)F)ncn3)=C(O)C3(CCC3)N2C)c(F)c1F [Example 344]	58	
CN1N(Cc2ccc(OCCNCCS(=O)(=O)O)c(F)c2F)C(=O)C(C(=O)Nc2ccc(C(F)(F)F)cc2-c2cc(C(F)(F)F)ncn2)=C(O)C12CCCC2 [Example 435, 2-[2-[2,3-Difluoro-4-[[10-hydroxy-6-methyl-8-oxo-9-[[4-(trifluoromethyl)-2-[6-(trifluoromethyl)pyrimidin-4-yl]phenyl]carbamoyl]-6,7-diazaspiro[4.5]dec-9-en-7-yl]methyl]phenoxylethy]amino]ethanesulfonic acid]		11
CC(C)[C@H]1C(O)=C(C(=O)Nc2ccc(C(F)(F)F)cc2-c2cc(C(F)(F)F)ncn2)C(=O)N(Cc2cccc(F)c2F)N1C [Example 252]	53	
Cc1c(-c2cc(C(F)(F)F)ccc2NC(=O)C2=C(O)[C@H](C(C)(C)C)N(C)N(Cc3ccc(OCCN4CCOCC4)c(F)c3F)C2=O)ncnc1C(F)(F)F [Example 278]	69	
C[C@]12CCCN1N(Cc1cccc(F)c1F)C(=O)C(C(=O)Nc1ccc(Cl)cn1)=C2O [Example 79]	71	
Cc1cccc(CN2C(=O)C(C(=O)Nc3ccc(C(F)(F)F)cc3-c3cc(C(F)(F)F)ncn3)=C(O)[C@@]3(C)CCCN23)c1 [Example 186]	88	
C[C@]12CCCN1N(Cc1ccc(OCCN3CCOCC3)c(F)c1F)C(=O)C(C(=O)Nc1ccc(Cl)cc1-c1ccc(C(F)(F)F)nc1)=C2O [Example 102]	65	
COC(=O)c1cccc(CN2C(=O)C(C(=O)Nc3ccc(C(F)(F)F)cc3-c3cc(C(F)(F)F)ncn3)=C(O)[C@@]3(C)CCCN23)c1 [Example 183]	82	
C[C@]12CCCN1N(Cc1ccccc1Cl)C(=O)C(C(=O)Nc1ccc(C(F)(F)F)cc1-c1cc(C(F)(F)F)ncn1)=C2O [Example 180]	75	
Cc1cc(NC(=O)C2=C(O)[C@@H]3CC(C)(C)CN3N(Cc3cccc(F)c3)C2=O)c(C(F)(F)F)o1 [Example 3, (4aS)-1-[(3-Fluorophenyl)methyl]-4-hydroxy-6,6-dimethyl-N-[5-methyl-2-(trifluoromethyl)furan-3-yl]-2-oxo-5,7-dihydro-4aH-pyrrolo[1,2-b]pyridazine-3-carboxamide]	11	
C[C@]12CCCN1N(Cc1cccc(F)c1F)C(=O)C(C(=O)Nc1ccc(C(F)(F)F)cc1-c1ncnc(C#N)c1Cl)=C2O [Example 23]	84	
C[C@]12CCCN1N(Cc1ccc(C#CCCCCC(=O)O)c(F)c1F)C(=O)C(C(=O)Nc1ccc(C(F)(F)F)cc1-c1cncc(C(F)(F)F)c1)=C2O [Example 119, 7-[4-[[(4aR)4-Hydroxy-4a-methyl-2-oxo-3-[[4-(trifluoromethyl)-2-[5-(trifluoromethyl)pyridin-3-yl]phenyl]carbamoyl]-6,7-dihydro-5H-pyrrolo[1,2-b]pyridazin-1-yl]methyl)-2,3-difluorophenyl]hept-6-ynoate]	71	
COC(=O)CN(C)CCOc1ccc(CN2C(=O)C(C(=O)Nc3ccc(C(F)(F)F)cc3-c3cc(C(F)(F)F)ncn3)=C(O)C3(CCCC3)N2C)c(F)c1F [Example 368]	26	
CN1N(Cc2cccc(F)c2F)C(=O)C(C(=O)Nc2ccc(Br)c(C(F)(F)F)n2)=C(O)C12CCCC2 [Example 263]	66	
COC(C)(C)CN(C)CCOc1ccc(CN2C(=O)C(C(=O)Nc3ccc(C(F)(F)F)cc3-c3cc(C(F)(F)F)ncn3)=C(O)C3(CCC3)N2C)c(F)c1F [Example 350]	45	
C[C@]12CCCN1N(Cc1cc(F)ccc1F)C(=O)C(C(=O)Nc1ccc(C(F)(F)F)cc1-c1ccc(C(F)(F)F)nc1)=C2O [Example 172]	72	
COCCN(CCOC)CCOc1ccc(CN2C(=O)C(C(=O)Nc3ccc(C(F)(F)F)cc3-c3cc(C(F)(F)F)ncn3)=C(O)C3(CCC3)N2C)c(F)c1F [Example 348]	31	

SMILES	Rate of uptake inhibition (%) (1 µM)	Rate of uptake inhibition (%) (1 µM)
CN(CCOc1ccc(CN2C(=O)C(C(=O)Nc3ccc(C(F)(F)F)cc3-c3cc(C(F)(F)F)ncn3)=C(O)C3(CCCC3)N2C)c(F)c1F)C1COC1 [Example 412, 7-(2,3-Difluoro-4-(2-(methyl(oxetan-3-yl)amino)ethoxy)benzyl)-10-hydroxy-6-methyl-8-oxo-N-(4-(trifluoromethyl)-2-(6-(trifluoromethyl)pyrimidin-4-yl)phenyl)-6,7-diazaspiro[4.5]dec-9-ene-9-carboxamide]	52	
COC(=O)CN(C)c1ncc(-c2cc(C(F)(F)F)ccc2NC(=O)C2=C(O)[C@@]3(C)CCCN3N(Cc3cccc(F)c3F)C2=O)cc1C#N [Example 112]	43	
Cc1c(C#N)ncnc1-c1cc(C(F)(F)F)ccc1NC(=O)C1=C(O)[C@@]2(C)CCCN2N(Cc2cccc(F)c2F)C1=O [Example 24]	76	
CN(C)S(=O)(=O)c1ccc(-c2nc(C(F)(F)F)ccc2NC(=O)C2=C(O)[C@@]3(C)CCCN3N(Cc3cccc(F)c3F)C2=O)cc1 [Example 87]	84	
CN1N(Cc2ccc(OCCCC(=O)O)c(F)c2F)C(=O)C(C(=O)Nc2ccc(C(F)(F)F)cc2-c2cc(C(F)(F)F)ncn2)=C(O)C12CCCC2 [Example 332, 4-[2,3-Difluoro-4-[[10-hydroxy-6-methyl-8-oxo-9-[[4-(trifluoromethyl)-2-[6-(trifluoromethyl)pyrimidin-4-yl]phenyl]carbamoyl]-6,7-diazaspiro[4.5]dec-9-en-7-yl]methyl]phenoxy]butanoate]	3	
C[C@]12CCCN1N(Cc1cccc(F)c1F)C(=O)C(C(=O)Nc1ccc(Cl)cc1F)=C2O [Example 76]	77	
C[C@]12CCCN1N(Cc1cccc(F)c1Cl)C(=O)C(C(=O)Nc1cc(F)c(Br)c(F)c1)=C2O [Example 174]	87	
C[C@]12CCCN1N(Cc1cccc(F)c1F)C(=O)C(C(=O)Nc1ccc(C(F)(F)F)cc1-c1ncnc(Cl)c1Cl)=C2O [Example 70]	79	
CN1N(Cc2cccc(F)c2F)C(=O)C(C(=O)Nc2ccc(C(F)(F)F)cc2-c2cncc(C(F)(F)F)c2)=C(O)C1(C)C [Example 305]	66	
C[C@]12CCCN1N(Cc1c(F)cccc1F)C(=O)C(C(=O)Nc1ccc(C(F)(F)F)cc1-c1ccc(C(F)(F)F)nc1)=C2O [Example 203]	91	
CN1N(Cc2ccc(NCCCN3CCOCC3)c(F)c2F)C(=O)C(C(=O)Nc2ccc(C(F)(F)F)cc2-c2cc(C(F)(F)F)ncn2)=C(O)C12CCCC2 [Example 446]	31	
CSc1ccc(-c2cc(C(F)(F)F)ccc2NC(=O)C2=C(O)[C@@]3(C)CCCN3N(Cc3ccc(OCCN4CCOCC4)c(F)c3F)C2=O)cn1 [Example 103]	78	
C[C@]12CCCN1N(Cc1cccc(F)c1F)C(=O)C(C(=O)Nc1ccc(C(F)(F)F)cc1)=C2O [Example 89]	67	
Cc1cc(NC(=O)C2=C(O)[C@@H]3CCCCN3N(Cc3cccc(F)c3)C2=O)c(C(F)(F)F)o1 [Example 16]	38	
C[C@]12CCCN1N(Cc1cccc(OC(F)(F)F)c1)C(=O)C(C(=O)Nc1ccc(C(F)(F)F)cc1-c1cc(C(F)(F)F)ncn1)=C2O [Example 189]	73	
C[C@]12CCCN1N(Cc1ccc(OC[C@H]3CCCO3)c(F)c1F)C(=O)C(C(=O)Nc1ccc(C(F)(F)F)cc1-c1ccc(C(F)(F)F)nc1)=C2O [Example 160]	77	
CN1N(Cc2ccc(OCCN3CCOCC3)c(F)c2F)C(=O)C(C(=O)Nc2ccc(Cl)cc2-c2cc(C(F)(F)F)ncn2)=C(O)C12CCCCC2 [Example 297]	36	
COc1ncc(-c2cc(C(F)(F)F)ccc2NC(=O)C2=C(O)[C@@]3(C)CCCN3N(Cc3cccc(F)c3F)C2=O)c(OC)n1 [Example 72]	92	
Cc1c(Cl)ncnc1-c1cc(Cl)ccc1NC(=O)C1=C(O)[C@H](C(C)(C)C)N(C)N(Cc2ccc(OCCN3CCOCC3)c(F)c2F)C1=O [Example 275]	42	
CSc1ccc(-c2cc(C(F)(F)F)ccc2NC(=O)C2=C(O)[C@@]3(C)CCCN3N(Cc3ccc(OCCCCOC[C@H](O)CO)c(F)c3F)C2=O)cn1 [Example 120]	66	
CN1N(Cc2ccc(OCCCCCOC[C@H](O)CO)c(F)c2F)C(=O)C(C(=O)Nc2ccc(C(F)(F)F)cc2-c2ccc(C(F)(F)F)nc2)=C(O)C12CCC2 [Example 385]	39	
